Key:
Test in all cases: relative viability (nuclei count vs DMSO), 5 days (fraction); higher = more cells survive
Dovitinib + OSI-027 = compound: CN1CCN(c2ccc3nc(-c4c(N)c5c(F)cccc5[nH]c4=O)[nH]c3c2)CC1 [Dovitinib] + COc1cccc2cc(-c3nc([C@H]4CC[C@H](C(=O)O)CC4)n4ncnc(N)c34)[nH]c12 [OSI-027] (partner 0.5 µM)
Procedure, shortened: (§1)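 Lung cancer cell lines were seeded in 1536-well plates and dosed by pin tool the next day, with either a single drug or a fixed anchor-drug dose combined with five library-drug doses (not always all listed) spaced in √10 steps. Five days later, one step fixed the cells and stained their nuclei (final 0.05% Triton X-100, 1% formaldehyde, 1 ug/ml Hoechst), and nuclei were counted on 4× images. Relative viability is the nuclei count in treated wells divided by the count in vehicle wells, and each value is the median of duplicate plates.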

Dovitinib + Crizotinib = compound: CN1CCN(c2ccc3nc(-c4c(N)c5c(F)cccc5[nH]c4=O)[nH]c3c2)CC1 [Dovitinib] + C[C@@H](Oc1cc(-c2cnn(C3CCNCC3)c2)cnc1N)c1c(Cl)ccc(F)c1Cl [Crizotinib] (partner 1 µM)
Procedure, shortened: as §1

Dovitinib + Linsitinib = compound: CN1CCN(c2ccc3nc(-c4c(N)c5c(F)cccc5[nH]c4=O)[nH]c3c2)CC1 [Dovitinib] + C[C@]1(O)C[C@@H](c2nc(-c3ccc4ccc(-c5ccccc5)nc4c3)c3c(N)nccn32)C1 [Linsitinib] (partner 1 µM)
Procedure, shortened: as §1

Dovitinib + Tozasertib = compound: CN1CCN(c2ccc3nc(-c4c(N)c5c(F)cccc5[nH]c4=O)[nH]c3c2)CC1 [Dovitinib] + Cc1cc(Nc2cc(N3CCN(C)CC3)nc(Sc3ccc(NC(=O)C4CC4)cc3)n2)n[nH]1 [Tozasertib] (partner 0.1 µM)
Procedure, shortened: as §1

Cell Line	relative viability (Dovitinib + OSI-027; first compound 0.02 µM)	relative viability (Dovitinib + OSI-027; first compound 0.06325 µM)	relative viability (Dovitinib + OSI-027; first compound 0.2 µM)	relative viability (Dovitinib + OSI-027; first compound 0.6325 µM)	relative viability (Dovitinib + OSI-027; first compound 2 µM)	relative viability (Dovitinib + Crizotinib; first compound 0.02 µM)	relative viability (Dovitinib + Crizotinib; first compound 0.06325 µM)	relative viability (Dovitinib + Crizotinib; first compound 0.2 µM)	relative viability (Dovitinib + Crizotinib; first compound 0.6325 µM)	relative viability (Dovitinib + Crizotinib; first compound 2 µM)	relative viability (Dovitinib + Linsitinib; first compound 0.02 µM)	relative viability (Dovitinib + Linsitinib; first compound 0.06325 µM)	relative viability (Dovitinib + Linsitinib; first compound 0.2 µM)	relative viability (Dovitinib + Linsitinib; first compound 0.6325 µM)	relative viability (Dovitinib + Linsitinib; first compound 2 µM)	relative viability (Dovitinib + Tozasertib; first compound 0.02 µM)	relative viability (Dovitinib + Tozasertib; first compound 0.06325 µM)	relative viability (Dovitinib + Tozasertib; first compound 0.2 µM)	relative viability (Dovitinib + Tozasertib; first compound 0.6325 µM)	relative viability (Dovitinib + Tozasertib; first compound 2 µM)
NCI-H1437	0.877	0.881	0.867	0.903	0.916	0.867	0.947	0.781	0.929	0.868	0.963	1.05	0.984	0.955	1.03	0.418	0.392	0.435	0.392	0.419
NCI-H2009	0.546	0.621	0.642	0.638	0.611	0.919	1.06	1.04	1.03	1.12	1.16	1.18	1.15	1.2	1.2	0.698	0.761	0.782	0.683	0.886
NCI-H1651	0.733	0.723	0.765	0.77	0.688	0.927	0.882	0.824	0.829	0.858	1.05	0.895	0.902	0.929	0.936	0.61	0.65	0.691	0.682	0.733
LCLC-103H	0.415	0.477	0.523	0.452	0.479	0.992	0.978	0.993	0.946	0.916	1.09	0.988	1.03	1.08	1.04	0.539	0.414	0.477	0.415	0.53
NCI-H1666	0.931	0.882	0.838	0.875	0.909	0.966	1.14	1.08	0.964	1.04	0.793	0.687	0.859	0.764	0.896	0.582	0.651	0.581	0.525	0.625
NCI-H1734	0.655	0.632	0.687	0.575	0.55	0.635	0.664	0.637	0.598	0.643	0.961	0.862	0.843	0.902	0.833	0.287	0.279	0.264	0.223	0.288
EPLC-272H	0.258	0.336	0.3	0.28	0.241	0.799	0.994	0.981	1.09	0.972	1.17	1.16	1.2	1.11	1.16	0.343	0.267	0.263	0.343	0.32
NCI-H2023	0.429	0.404	0.476	0.394	0.362	0.55	0.604	0.591	0.573	0.481	0.744	0.638	0.734	0.741	0.595	0.324	0.334	0.384	0.261	0.313
BEN	0.319	0.302	0.342	0.312	0.287	0.864	0.903	0.912	0.827	0.887	0.874	0.873	1.07	0.922	0.898	0.512	0.526	0.591	0.635	0.419
COR-L 105	0.722	0.637	0.649	0.659	0.784	0.706	0.832	0.774	0.701	0.69	1.04	0.912	0.834	0.855	0.961	0.345	0.299	0.365	0.394	0.168
ABC-1	0.445	0.505	0.48	0.448	0.51	1.54	1.19	1.22	1.2	1.08	0.848	0.865	0.842	1.02	0.618	0.175	0.208	0.201	0.208	0.192
HCC-15	0.658	0.68	0.741	0.656	0.711	0.756	0.841	0.719	0.79	0.812	0.952	0.831	0.938	0.879	0.941	0.349	0.439	0.416	0.36	0.441
PC-3 [JPC-3]	0.86	0.767	0.8	0.732	0.779	0.928	0.923	0.963	1.01	0.984	0.923	0.907	0.983	0.99	0.967	0.838	0.884	0.892	0.889	0.83
NCI-H1993	0.599	0.545	0.597	0.505	0.573	0.917	0.818	0.811	1.04	0.942	0.774	0.678	0.657	0.695	0.808	0.58	0.546	0.601	0.636	0.582
NCI-H358	0.703	0.769	0.905	0.819	0.739	0.569	0.566	0.507	0.459	0.793	0.743	0.656	0.826	0.66	0.854	0.104	0.101	0.115	0.11	0.106
NCI-H1915	0.559	0.635	0.621	0.602	0.647	0.854	0.886	0.838	0.922	0.841	1.09	1.09	1.08	1.09	1.05	0.435	0.445	0.46	0.451	0.453
